In US12371428B2 (Exelixis, Inc., priority 2019, dated 2025):

Columns and labels:
Type in all cases: cell-based
[1] = biological target: Met (phospho-Met, HGF-stimulated PC-3 prostate cancer cells) (Homo sapiens (Human), UniProt P08581); experiment: Met autophosphorylation ELISA in PC-3 cells (Example F); details: cellular activity; Met autophosphorylation ELISA in PC-3 cells; read-out: c-Met IC50
Description: PC-3 prostate cancer cells (ATCC #CRL-1435) were seeded at 4×10^4 cells/well onto 24-well plates (Greiner #662165), in DMEM (Thermo Fisher #11995-040) containing 10% FBS (Thermo Fisher #26140-079), 1% MEM NEAA (Thermo Fisher #11140-050), 1% GlutaMax (Thermo Fisher #35050-061), and 1% Penicillin Streptomycin (Thermo Fisher #15140-122). PC-3 cells were incubated at 37° C., 5% CO2 for 24 h and then starved for 3 h in serum-free medium. Test compounds were serially diluted to produce an 8-point dose curve in fresh serum-free medium to a final concentration of 0.3% DMSO (vehicle) and added to the cells and incubated for 1 h. Cells were then stimulated with 100 ng/mL recombinant human HGF (R&D Systems #294-HG-250) for 10 min, washed with cold PBS, and immediately lysed with […] of cold 1× lysis buffer [20 mM Tris, 137 mM sodium chloride, 2 mM EDTA, 10% glycerol, 1% NP-40 alternative, 1 mM activated sodium orthovanadate, 1 mM PefaBloc SC (Sigma-Aldrich #11429868001), protease/phosphatase inhibitor tablet (Thermo Fisher #A32959)]. Lysates were clarified by centrifugation and 100 μL/well added into the PathScan phospho-Met (panTyr) Sandwich ELISA (Cell Signaling Technology #7333). Assay was performed according to manufacturer's instructions. Positive control wells (100% activity) contained HGF-stimulated, DMSO-treated cell lysates. Negative control wells (0% activity) contained HGF-stimulated, reference inhibitor-treated cell lysates. IC50 values were calculated by nonlinear regression analysis using a 4-parameter logistic curve fit in ActivityBase XE (IDBS).

[2] = biological target: Mer (phospho-Mer, MERTK-transfected 293A cells) (Homo sapiens (Human), UniProt Q12866); experiment: Mer autophosphorylation ELISA in transient transfected 293A cells (Example H); details: cellular activity; Mer autophosphorylation ELISA in transient transfected 293A cells
Description: 293A cells (Thermo Fisher #R70507) were seeded at 1.5×10^6 cells/well onto 100 mm dish (Greiner #664169), in DMEM (Thermo Fisher #11995-040) containing 10% FBS (Thermo Fisher #26140-079), 1% MEM NEAA (Thermo Fisher #11140-050), 1% GlutaMax (Thermo Fisher #35050-061), and 1% Penicillin Streptomycin (Thermo Fisher #15140-122). 293A cells were incubated at 37° C., 5% CO2 for 24 h and then transfected with […] MERTK DNA (Genecopoeia #EX-Z8208-M02) using TransIT LT1 transfection reagent (Mirus-Bio #MIR2305). After 24 h incubation, the transfected 293A cells were seeded at 1×10^5 cells/well onto 96-well plates (Corning #3904) in DMEM growth medium overnight. Test compounds were serially diluted to produce an 8-point dose curve in fresh serum-free medium to a final concentration of 0.3% DMSO (vehicle) and added to the cells and incubated for 1 h. Cells were then immediately lysed with 150 μL of cold 1× lysis buffer [20 mM Tris, 137 mM sodium chloride, 2 mM EDTA, 10% glycerol, 1% NP-40 alternative, 1 mM activated sodium orthovanadate, 1 mM PefaBloc SC (Sigma-Aldrich #11429868001), protease/phosphatase inhibitor tablet (Thermo Fisher #A32959)]. Lysates were clarified by centrifugation and 50 µL/well added in to the human phospho-Mer DuoSet IC ELISA (R&D Systems #DYC2579-2). Assay was performed according to manufacturer's instructions and sample phospho-Mer concentrations were extrapolated using human phospho-Mer control (R&D Systems #841793) as a standard. Positive control wells (100% activity) contained DMSO-treated cell lysates. Negative control wells (0% activity) contained reference inhibitor-treated cell lysates. IC50 values were calculated by nonlinear regression analysis using a 4-parameter logistic curve fit in ActivityBase XE (JDBS).

[3] = biological target: KDR (phospho-KDR, VEGF165-stimulated HUVEC cells) (Homo sapiens (Human), UniProt P35968); experiment: KDR autophosphorylation ELISA in HUVEC cells (Example G); details: cellular activity; KDR autophosphorylation ELISA in HUVEC cells
Description: Human umbilical vein endothelial cells or HUVEC (Lonza #C2519A) were seeded at 2×10^4 cells/well onto 96-well plates (Corning #3904), in EGM-2 growth medium (Lonza #CC-3162) containing 1% Penicillin Streptomycin (Thermo Fisher #15140-122). HUVEC cells were incubated at 37° C., 5% CO2 for 24 h and then starved for 24 h in serum-free EBM-2 basal medium (Lonza #CC-3156) containing 1% Penicillin Streptomycin. Test compounds were serially diluted to produce an 8-point dose curve in fresh serum-free medium to a final concentration of 0.3% DMSO (vehicle) and added to the cells and incubated for 1 h. Cells were then stimulated with 100 ng/mL recombinant human VEGF165 (R&D Systems #293-VE-500) for 5 min, washed with cold PBS, and immediately lysed with […] of cold 1× lysis buffer [20 mM Tris, 137 mM sodium chloride, 2 mM EDTA, 10% glycerol, 1% NP-40 alternative, 1 mM activated sodium orthovanadate, 1 mM PefaBloc SC (Sigma-Aldrich #11429868001), protease/phosphatase inhibitor tablet (Thermo Fisher #A32959)]. Lysates were collected and 100 μL/well added into the human phospho-KDR DuoSet IC ELISA (R&D Systems #DYC1766-2). Assay was performed according to manufacturer's instructions and sample phospho-KDR concentrations were extrapolated using human phospho-KDR control (R&D Systems #841421) as a standard. Positive control wells (100% activity) contained VEGF165-stimulated, DMSO-treated cell lysates. Negative control wells (0% activity) contained non-stimulated cell lysates. IC50 values were calculated by nonlinear regression analysis using a 4-parameter logistic curve fit in ActivityBase XE (IDBS).

KDR (phospho-KDR, VEGF165-stimulated HUVEC cells), sequence (P35968 20-1356): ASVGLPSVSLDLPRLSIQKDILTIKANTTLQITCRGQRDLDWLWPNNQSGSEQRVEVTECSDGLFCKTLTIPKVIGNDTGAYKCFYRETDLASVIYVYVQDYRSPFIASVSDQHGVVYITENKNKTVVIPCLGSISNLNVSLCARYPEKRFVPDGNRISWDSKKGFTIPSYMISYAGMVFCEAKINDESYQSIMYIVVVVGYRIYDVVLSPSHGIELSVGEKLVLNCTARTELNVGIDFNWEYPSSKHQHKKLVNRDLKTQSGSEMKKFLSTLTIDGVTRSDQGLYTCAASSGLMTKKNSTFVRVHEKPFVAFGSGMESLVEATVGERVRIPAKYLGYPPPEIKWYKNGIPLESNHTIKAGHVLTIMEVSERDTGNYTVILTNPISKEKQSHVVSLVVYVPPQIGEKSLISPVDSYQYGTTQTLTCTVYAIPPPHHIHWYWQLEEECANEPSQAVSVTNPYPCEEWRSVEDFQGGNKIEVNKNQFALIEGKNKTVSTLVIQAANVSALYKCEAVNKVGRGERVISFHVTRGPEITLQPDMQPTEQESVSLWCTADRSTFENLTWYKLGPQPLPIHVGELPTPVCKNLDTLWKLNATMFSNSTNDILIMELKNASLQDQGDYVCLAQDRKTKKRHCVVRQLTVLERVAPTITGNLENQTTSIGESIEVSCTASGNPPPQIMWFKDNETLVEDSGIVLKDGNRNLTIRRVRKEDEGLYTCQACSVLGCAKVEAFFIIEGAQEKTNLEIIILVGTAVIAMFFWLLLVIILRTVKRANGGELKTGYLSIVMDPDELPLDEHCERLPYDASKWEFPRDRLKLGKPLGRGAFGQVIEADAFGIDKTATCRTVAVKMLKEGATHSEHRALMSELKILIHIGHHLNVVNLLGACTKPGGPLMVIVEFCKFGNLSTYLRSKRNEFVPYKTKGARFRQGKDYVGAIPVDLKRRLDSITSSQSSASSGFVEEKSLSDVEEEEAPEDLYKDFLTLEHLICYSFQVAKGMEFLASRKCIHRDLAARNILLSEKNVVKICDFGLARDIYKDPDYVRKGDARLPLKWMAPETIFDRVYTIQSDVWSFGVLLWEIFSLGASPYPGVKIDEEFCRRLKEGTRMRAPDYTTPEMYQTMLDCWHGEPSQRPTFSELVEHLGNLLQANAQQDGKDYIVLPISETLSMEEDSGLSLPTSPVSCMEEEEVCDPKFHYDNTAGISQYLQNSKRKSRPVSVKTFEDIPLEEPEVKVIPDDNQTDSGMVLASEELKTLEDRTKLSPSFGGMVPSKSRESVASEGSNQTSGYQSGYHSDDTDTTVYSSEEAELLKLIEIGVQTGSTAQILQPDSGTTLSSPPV
Met (phospho-Met, HGF-stimulated PC-3 prostate cancer cells), sequence (P08581 25-1390): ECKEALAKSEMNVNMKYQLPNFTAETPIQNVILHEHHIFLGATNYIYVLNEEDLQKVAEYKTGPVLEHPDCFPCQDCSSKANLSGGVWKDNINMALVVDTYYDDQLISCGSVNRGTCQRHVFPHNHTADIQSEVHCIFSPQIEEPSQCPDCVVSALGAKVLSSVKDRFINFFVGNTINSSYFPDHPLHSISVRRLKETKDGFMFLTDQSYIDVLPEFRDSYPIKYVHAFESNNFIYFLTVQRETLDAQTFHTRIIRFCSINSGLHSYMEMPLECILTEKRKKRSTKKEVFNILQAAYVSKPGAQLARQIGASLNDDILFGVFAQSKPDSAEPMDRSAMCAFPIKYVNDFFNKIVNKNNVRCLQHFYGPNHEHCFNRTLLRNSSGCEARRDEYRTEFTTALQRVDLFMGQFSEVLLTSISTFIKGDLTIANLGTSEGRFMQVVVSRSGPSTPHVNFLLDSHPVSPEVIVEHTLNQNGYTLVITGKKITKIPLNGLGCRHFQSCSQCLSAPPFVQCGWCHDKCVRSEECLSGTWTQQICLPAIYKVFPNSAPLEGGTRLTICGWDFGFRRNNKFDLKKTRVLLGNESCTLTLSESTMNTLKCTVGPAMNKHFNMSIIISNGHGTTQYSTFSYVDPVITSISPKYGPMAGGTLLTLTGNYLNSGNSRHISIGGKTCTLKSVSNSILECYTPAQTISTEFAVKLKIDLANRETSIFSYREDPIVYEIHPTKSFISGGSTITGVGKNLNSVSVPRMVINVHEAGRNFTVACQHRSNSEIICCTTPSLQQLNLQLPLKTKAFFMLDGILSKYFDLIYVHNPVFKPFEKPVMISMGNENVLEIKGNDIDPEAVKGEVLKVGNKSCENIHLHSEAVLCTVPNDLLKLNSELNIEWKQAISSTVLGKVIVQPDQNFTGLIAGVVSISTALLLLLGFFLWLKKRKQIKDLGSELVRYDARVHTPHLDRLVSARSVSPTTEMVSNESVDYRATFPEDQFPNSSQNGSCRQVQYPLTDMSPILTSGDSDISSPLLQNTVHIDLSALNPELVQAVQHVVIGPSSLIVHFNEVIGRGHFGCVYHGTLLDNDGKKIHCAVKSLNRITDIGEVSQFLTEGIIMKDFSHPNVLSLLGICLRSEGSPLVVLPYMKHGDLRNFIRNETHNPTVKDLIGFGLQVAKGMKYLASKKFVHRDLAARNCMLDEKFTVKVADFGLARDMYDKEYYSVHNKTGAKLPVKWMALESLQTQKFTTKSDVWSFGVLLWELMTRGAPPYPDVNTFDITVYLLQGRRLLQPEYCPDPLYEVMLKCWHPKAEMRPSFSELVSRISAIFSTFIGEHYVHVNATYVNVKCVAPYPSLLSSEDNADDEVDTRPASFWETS
Mer (phospho-Mer, MERTK-transfected 293A cells), sequence (Q12866 21-999): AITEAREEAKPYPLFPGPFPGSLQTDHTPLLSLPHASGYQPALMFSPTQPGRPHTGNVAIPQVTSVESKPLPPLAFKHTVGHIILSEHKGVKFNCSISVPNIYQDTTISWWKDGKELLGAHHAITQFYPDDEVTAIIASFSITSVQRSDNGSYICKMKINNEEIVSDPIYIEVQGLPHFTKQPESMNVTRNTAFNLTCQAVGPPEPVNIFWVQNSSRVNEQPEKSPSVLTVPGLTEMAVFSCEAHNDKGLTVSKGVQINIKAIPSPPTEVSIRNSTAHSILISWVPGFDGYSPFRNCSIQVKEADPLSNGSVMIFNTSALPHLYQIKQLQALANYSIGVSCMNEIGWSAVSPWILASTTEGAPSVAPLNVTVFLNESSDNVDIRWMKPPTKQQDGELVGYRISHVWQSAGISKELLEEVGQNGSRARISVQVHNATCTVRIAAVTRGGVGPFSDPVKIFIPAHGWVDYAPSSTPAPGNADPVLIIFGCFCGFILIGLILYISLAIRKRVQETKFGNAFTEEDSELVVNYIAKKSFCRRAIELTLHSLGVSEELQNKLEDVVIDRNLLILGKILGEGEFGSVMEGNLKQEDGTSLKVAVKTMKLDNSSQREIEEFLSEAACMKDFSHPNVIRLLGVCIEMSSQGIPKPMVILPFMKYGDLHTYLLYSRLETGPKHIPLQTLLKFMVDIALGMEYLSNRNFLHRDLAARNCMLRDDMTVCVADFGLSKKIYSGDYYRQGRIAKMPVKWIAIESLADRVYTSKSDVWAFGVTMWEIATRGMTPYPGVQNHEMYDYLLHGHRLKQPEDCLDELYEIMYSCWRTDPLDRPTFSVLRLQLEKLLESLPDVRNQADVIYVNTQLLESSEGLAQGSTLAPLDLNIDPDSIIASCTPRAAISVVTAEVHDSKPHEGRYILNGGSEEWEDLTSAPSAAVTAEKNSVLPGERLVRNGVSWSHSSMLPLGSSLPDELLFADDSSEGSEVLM

| Compound | IC50 [1] [µM] | IC50 [2] [µM] | IC50 [3] [µM] |
| --- | --- | --- | --- |
| COc1cnc2c(Oc3ccc(NC(=O)c4cnc(C)c(-c5ccc(F)c(F)c5)c4O)cc3F)ccnc2c1 [Compound 706, 5-(3,4-difluorophenyl)-N-[3-fluoro-4-[(7-methoxy-1,5-naphthyridin-4-yl)oxy]phenyl]-4-hydroxy-6-methylpyridine-3-carboxamide] | < 0.1 | < 0.1 | < 0.1 |
| COc1cc2nccc(Oc3ccc(NC(=O)c4c(C)n(CCF)cc(-c5ccc(F)cc5C)c4=O)cc3F)c2nc1OC [Compound 756, N-[4-[(6,7-dimethoxy-1,5-naphthyridin-4-yl)oxy]-3-fluorophenyl]-1-(2-fluoroethyl)-5-(4-fluoro-2-methylphenyl)-2-methyl-4-oxopyridine-3-carboxamide] | < 0.1 | < 0.1 | < 0.1 |
| COc1cc2nccc(Oc3ccc(NC(=O)c4c(C)nnc(-c5ccc(F)cc5C)c4OC)cc3F)c2nc1OC [Compound 773, N-[4-[(6,7-dimethoxy-1,5-naphthyridin-4-yl)oxy]-3-fluorophenyl]-6-(4-fluoro-2-methylphenyl)-5-methoxy-3-methylpyridazine-4-carboxamide] | < 0.1 | < 0.1 | < 0.1 |
| COc1cnc2c(Oc3ccc(NC(=O)c4c(C)ncc(-c5ccc(F)cc5C)c4O)cc3F)ccnc2c1 [Compound 719, N-[3-fluoro-4-[(7-methoxy-1,5-naphthyridin-4-yl)oxy]phenyl]-5-(4-fluoro-2-methylphenyl)-4-hydroxy-2-methylpyridine-3-carboxamide] | < 0.1 | < 0.1 | < 0.1 |
| COc1cnc2c(Oc3cc(F)c(NC(=O)c4c(C)nc(C)c(-c5ccc(F)cc5F)c4O)cc3F)ccnc2c1 [Compound 779, N-[2,5-difluoro-4-[(7-methoxy-1,5-naphthyridin-4-yl)oxy]phenyl]-5-(2,4-difluorophenyl)-4-hydroxy-2,6-dimethylpyridine-3-carboxamide] | < 0.1 | < 0.1 | < 0.1 |
| COCc1nc(C)c(-c2ccc(F)cc2F)c(O)c1C(=O)Nc1cc(F)c(Oc2ccnc3cc(OC)c(OC)nc23)cc1F [Compound 778, 5-(2,4-difluorophenyl)-N-[4-[(6,7-dimethoxy-1,5-naphthyridin-4-yl)oxy]-2,5-difluorophenyl]-4-hydroxy-2-(methoxymethyl)-6-methylpyridine-3-carboxamide] | < 0.1 | < 0.1 | < 0.1 |
| COc1cc2nccc(Oc3cc(F)c(NC(=O)c4c(C)nc(C)c(-c5ccc(F)cc5F)c4O)cc3F)c2nc1OC [Compound 777, 5-(2,4-difluorophenyl)-N-[4-[(6,7-dimethoxy-1,5-naphthyridin-4-yl)oxy]-2,5-difluorophenyl]-4-hydroxy-2,6-dimethylpyridine-3-carboxamide] | < 0.1 | < 0.1 | < 0.1 |
| COc1cc2nccc(Oc3ccc(NC(=O)c4cc(C(C)O)c(C)n(-c5ccc(F)cc5)c4=O)cc3F)c2nc1OC (stereo not drawn) [Compound 787, N-[4-[(6,7-dimethoxy-1,5-naphthyridin-4-yl)oxy]-3-fluorophenyl]-1-(4-fluorophenyl)-5-(1-hydroxyethyl)-6-methyl-2-oxopyridine-3-carboxamide] | < 0.1 | < 0.1 | > 0.3 |
| COc1cc2nccc(Oc3ccc(NC(=O)c4c(C)n(CC(F)(F)F)cc(-c5ccc(F)cc5)c4=O)cc3)c2nc1OC [Compound 789, N-[4-[(6,7-dimethoxy-1,5-naphthyridin-4-yl)oxy]phenyl]-5-(4-fluorophenyl)-2-methyl-4-oxo-1-(2,2,2-trifluoroethyl)pyridine-3-carboxamide] | < 0.1 | < 0.1 | > 0.3 |
| COc1cc2nccc(Oc3ccc(NC(=O)c4c(C)n(C)c(C)c(-c5ccc(F)cc5C)c4=O)cc3)c2nc1OC [Compound 791, N-[4-[(6,7-dimethoxy-1,5-naphthyridin-4-yl)oxy]phenyl]-5-(4-fluoro-2-methylphenyl)-1,2,6-trimethyl-4-oxopyridine-3-carboxamide] | < 0.1 | < 0.1 | > 0.3 |
| CCOc1ccn(-c2ccc(F)cc2)c(=O)c1C(=O)Nc1ccc(Oc2ccnc3cc(OC)cnc23)cc1 [Compound 717, 4-ethoxy-1-(4-fluorophenyl)-N-[4-[(7-methoxy-1,5-naphthyridin-4-yl)oxy]phenyl]-2-oxopyridine-3-carboxamide] | < 0.1 | < 0.1 | > 0.3 |
| COc1cc2nccc(Oc3ccc(NC(=O)c4nn(CC(F)F)c(C)c(-c5ccc(F)cc5)c4=O)cc3)c2nc1OC [Compound 776, 1-(2,2-difluoroethyl)-N-[4-[(6,7-dimethoxy-1,5-naphthyridin-4-yl)oxy]phenyl]-5-(4-fluorophenyl)-6-methyl-4-oxopyridazine-3-carboxamide] | < 0.1 | < 0.1 | > 0.3 |
| COc1cc2nccc(Oc3ccc(NC(=O)c4c5n(c(C)c(-c6ccc(F)cc6)c4=O)CCOC5)cc3F)c2nc1OC [Compound 775, N-[4-[(6,7-dimethoxy-1,5-naphthyridin-4-yl)oxy]-3-fluorophenyl]-7-(4-fluorophenyl)-6-methyl-8-oxo-3,4-dihydro-1H-pyrido[2,1-c][1,4]oxazine-9-carboxamide] | < 0.1 | < 0.1 | < 0.1 |
| COc1cc2nccc(Oc3ccc(NC(=O)c4c(C)nc(C)c(-c5ccc(F)c(C)c5)c4O)cc3F)c2nc1OC [Compound 710, N-[4-[(6,7-dimethoxy-1,5-naphthyridin-4-yl)oxy]-3-fluorophenyl]-5-(4-fluoro-3-methylphenyl)-4-hydroxy-2,6-dimethylpyridine-3-carboxamide] | < 0.1 | < 0.1 | < 0.1 |
| COc1cc2nccc(Oc3ccc(NC(=O)c4c(C)c(C)c(C)n(-c5ccccc5)c4=O)cc3F)c2nc1OC [Compound 755, N-[4-[(6,7-dimethoxy-1,5-naphthyridin-4-yl)oxy]-3-fluorophenyl]-4,5,6-trimethyl-2-oxo-1-phenylpyridine-3-carboxamide] | < 0.1 | < 0.1 | 0.1 to 0.3 |
